Results as given in article PMC3978495, “Synthesis and Preliminary Evaluation of a 2-Oxoquinoline Carboxylic Acid Derivative for PET Imaging the Cannabinoid Type 2 Receptor” (Pharmaceuticals, 2014).
Read-outs that look alike come from different tables or passages of the source.

How the values were obtained:
human CB1 (hCB1) = target: T1, human CB1 (hCB1) (Homo sapiens, UniProt P21554); experiment: Competition binding assay with [3H]CP-55,940, membranes of CHO-K1 cells transfected with hCB1; conditions: three independent experiments, [3H]CP-55,940 1.4 nM, read-out: binding affinity (Ki) towards CB1
T1 construct: purchased PerkinElmer, Waltham, MA, USA; host or cells: CHO-K1 cells (stably transfected), membrane preparation
T1 sequence (P21554 whole entry): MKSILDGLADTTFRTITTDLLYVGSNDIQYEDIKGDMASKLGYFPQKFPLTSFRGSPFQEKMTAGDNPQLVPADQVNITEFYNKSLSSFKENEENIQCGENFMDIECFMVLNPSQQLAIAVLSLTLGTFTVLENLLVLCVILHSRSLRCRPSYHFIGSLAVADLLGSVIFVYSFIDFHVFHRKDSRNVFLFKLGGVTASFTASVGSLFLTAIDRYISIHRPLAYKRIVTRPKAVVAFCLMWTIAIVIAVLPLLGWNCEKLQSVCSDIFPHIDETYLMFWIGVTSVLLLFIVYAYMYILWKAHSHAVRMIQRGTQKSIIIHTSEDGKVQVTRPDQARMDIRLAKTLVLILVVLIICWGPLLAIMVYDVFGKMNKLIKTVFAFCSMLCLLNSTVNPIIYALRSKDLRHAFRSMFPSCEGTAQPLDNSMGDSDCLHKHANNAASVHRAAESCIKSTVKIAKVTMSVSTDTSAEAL
Procedure: All samples were prepared in triplicates.

hCB2 = conditions: reported data; read-out: reported binding affinity towards human CB2; cited from earlier work
hCB1 = conditions: reported data; read-out: reported binding affinity towards CB1; cited from earlier work
human CB2 (hCB2) = human CB2 (hCB2) (Homo sapiens, UniProt P34972); experiment: Competition binding assay with [3H]CP-55,940, membranes of CHO-K1 cells transfected with hCB2
Sequence of human CB2 (hCB2) (P34972 whole entry): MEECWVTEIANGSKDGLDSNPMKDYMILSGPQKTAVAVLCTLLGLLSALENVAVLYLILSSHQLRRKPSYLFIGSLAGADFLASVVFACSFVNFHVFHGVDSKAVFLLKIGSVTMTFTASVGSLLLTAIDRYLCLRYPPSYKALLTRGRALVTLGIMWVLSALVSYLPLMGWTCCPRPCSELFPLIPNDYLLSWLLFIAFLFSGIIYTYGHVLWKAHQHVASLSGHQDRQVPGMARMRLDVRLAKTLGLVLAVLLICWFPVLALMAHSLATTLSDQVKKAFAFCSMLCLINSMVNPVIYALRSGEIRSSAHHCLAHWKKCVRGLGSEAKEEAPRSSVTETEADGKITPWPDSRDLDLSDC
Procedure: Frozen membrane preparations from CHO-K1 cells transfected with human CB1 (hCB1) and CB2 (hCB2), respectively (PerkinElmer, Waltham, MA, USA), were thawed on ice and diluted to a final protein concentration of 1 µg/mL in assay buffer (50 mM TRIS/HCl, 1 mM EDTA (Applichem, Darmstadt, Germany), 3 mM MgCl2, pH 7.4, containing 0.05% bovine serum albumin, BSA). […] All samples were prepared in triplicates. After 90 min, 3 mL ice cold assay buffer was added and samples were immediately filtered through Whatman GF/C filters (pre-soaked in 0.05% polyethylenimine) and washed twice with 3 mL ice cold assay buffer.

[1] = target: T2, CB2 in mouse spleen slices (Mus musculus, UniProt P47936); experiment: In vitro autoradiography on mouse spleen slices; assay type: binding
T2 construct: performed on 20 µm tissue slices (rat/mouse spleen) adsorbed to SuperFrost Plus slides; from tissue; host or cells: mouse spleen slices (20 µm)
T2 sequence (P47936 whole entry): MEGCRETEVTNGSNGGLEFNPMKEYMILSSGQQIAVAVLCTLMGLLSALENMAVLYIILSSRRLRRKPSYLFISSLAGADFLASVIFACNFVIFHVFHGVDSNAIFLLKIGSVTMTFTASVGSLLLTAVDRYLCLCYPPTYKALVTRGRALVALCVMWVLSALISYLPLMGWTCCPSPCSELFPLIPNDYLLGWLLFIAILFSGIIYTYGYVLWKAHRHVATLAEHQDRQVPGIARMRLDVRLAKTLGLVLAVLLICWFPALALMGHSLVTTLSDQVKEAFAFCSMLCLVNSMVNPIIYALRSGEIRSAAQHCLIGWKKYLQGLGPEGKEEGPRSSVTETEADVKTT
Procedure: (§1) In vitro autoradiography with [^11C]KP23 was performed on 20 µm tissue slices (rat/mouse spleen) adsorbed to SuperFrost Plus slides. Slices were thawed (10 min) on ice before pre-incubation with incubation buffer (50 mM TRIS/HCl, pH 7.4, containing 5% BSA) at 4 °C for 10 min. Excess solution was carefully removed and the tissue slices were dried in a ventilated hood for 10 min. Then slides were incubated with 0.6 or 0.2 nM [^11C]KP23 alone or together with specific CB2 agonist (GW405833, 1 µM) in incubation buffer. After incubation for 15 min at RT in a humid chamber, slides were washed twice with ice cold washing buffer (50 mM TRIS/HCl, pH 7.4, 1% BSA, 5% EtOH) for 2 min each and dipped twice in water. Dried slides were exposed to a phosphor imager plate for 30 min and the plate was scanned in a BAS5000 reader (Fujifilm, Dielsdorf, Switzerland).

[2] = In vitro stability in phosphate buffer (PBS); assay type: physicochemical; conditions: PBS pH 7.4, 37 °C, 40 min
Procedure: (§2) To test the plasma stability of the radioligand, 10 µL (4 MBq) of [^11C]KP23 solution were added to phosphate buffer (300 µL, 4 mM NaH2PO4/Na2HPO4, 155 mM NaCl, pH 7.4), mouse and rat plasma (300 µL), respectively. The mixture was vortexed and four aliquots of 70 µL were incubated at 37 °C. Ice cold acetonitrile (100 µL) was added to stop the enzymatic reactions at different time points (0, 10, 20 and 40 min). After centrifugation (10,000 g, 3 min), the supernatant was passed through a filter (0.45 µm, Minisart SRP 4, Sartorius Stedim Biotech, Goettingen, Germany) and analyzed by UPLC.

[3] = In vivo dynamic PET imaging in Wistar rats; parameters: species or system rat
Procedure: PET scanning was performed with the GE VISTA eXplore PET/CT tomograph (Sedecal, Madrid, Spain). The scanner is characterized by high sensitivity (absolute central point source sensitivity of 4% for the […] energy windows) and an axial field of view of 4.8 cm. Male Wistar rats (278 ± 2 g, n = 2) were immobilized by isoflurane inhalation and the tracer was injected into a tail vein on the tomographic bed. Tracer accumulation in the spleen or brain were recorded by dynamic one-bed position PET scans over 60 min starting with the injection of 13 respectively 40 MBq (0.05 to 0.15 nmol) of [^11C]KP23. PET data was reconstructed by 3-dimensional FORE/2-dimensional OSEM in user-defined time frames with a voxel size of 0.3875 × 0.3875 × 0.775 mm. Singles and random corrections but no attenuation correction were applied. Image files were evaluated with the software PMOD v3.4 (PMOD Technologies Inc., Zurich, Switzerland). Time activity curves (TACs) of brain regions were generated with the implemented rat brain region of interest (ROI) template and TACs of the abdominal region with the respective ROIs generated by the PMOD segmentation tool. Spleen, liver and background TACs were confirmed by analysis of manually drawn regions of interest. Standardized uptake values (SUV) were calculated as tissue activities (Bq/cm^3), normalized to the injected dose per body weight (Bq/g).

[4] = In vitro stability in mouse plasma; assay type: in vitro ADME; conditions: 37 °C, 40 min
Procedure: as §2

[5] = rat, in vivo, iv; for percentage of parent tracer radioactivity in blood plasma: Wistar
Procedure: [^11C]KP23 was administered intravenously to a restrained Wistar rat (413 g) by tail vein injection (ca. 160 MBq). The animal was sacrificed by decapitation 30 min p.i. and blood and urine were collected. Whole blood was collected in heparin-coated tubes (BD Vacutainers, Plymouth, UK) and centrifuged at 5,000 g for 5 min, 4 °C. The proteins of the supernatant plasma and urine were precipitated by addition of an equal volume of acetonitrile and centrifuged at 5,000 g for another 5 min. The supernatants were filtered and analyzed by UPLC. For the determination of in vivo radiometabolites at 15 min p.i. blood samples were withdrawn from the tail vein opposite to the injection site.

[6] = In vitro stability in rat plasma; assay type: in vitro ADME; conditions: 37 °C, 40 min
Procedure: as §2

CB2 in rat spleen slices = target: T3, CB2 in rat spleen slices (Rattus norvegicus, UniProt Q9QZN9); experiment: In vitro autoradiography on rat spleen slices; assay type: binding
T3 construct: performed on 20 µm tissue slices (rat/mouse spleen) adsorbed to SuperFrost Plus slides; from tissue; host or cells: rat spleen slices (20 µm)
T3 sequence (Q9QZN9 1-360): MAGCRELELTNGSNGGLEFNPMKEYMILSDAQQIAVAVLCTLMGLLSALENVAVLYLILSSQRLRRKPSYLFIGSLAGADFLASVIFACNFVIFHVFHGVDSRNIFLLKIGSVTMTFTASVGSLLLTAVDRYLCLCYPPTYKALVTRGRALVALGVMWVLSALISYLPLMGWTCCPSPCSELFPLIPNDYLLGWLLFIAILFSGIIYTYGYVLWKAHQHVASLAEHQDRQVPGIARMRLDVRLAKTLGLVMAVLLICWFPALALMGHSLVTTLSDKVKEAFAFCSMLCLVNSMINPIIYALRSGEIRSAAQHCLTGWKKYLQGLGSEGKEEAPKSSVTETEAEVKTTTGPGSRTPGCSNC
Procedure: as §1

SMILES | Ki (human CB1 (hCB1)) [nM] | Ki (hCB2) [nM] | Ki (hCB1) [nM] | Ki (human CB2 (hCB2)) [nM] | non-specific binding in spleen tissue ([1]; mouse spleen slices (Figure 1 B2), with 1 μM GW4058233) | binding to CB2 in autoradiography ([1]; mouse spleen slices, 0.6 nM tracer, blocked by excess (1 μM) GW4058233) | stability (radioactive degradation products) [2] | brain uptake ([3]; healthy Wistar rat, i.v., PET, region of interest TAC analysis) | initial period of steadily increasing activity concentration in spleen, then slow washout ([3]; male, Wistar, rat, in vivo, iv) [min p.i.] | time of radioactivity peak in liver ([3]; male, Wistar, rat, in vivo, iv) | spleen uptake ([3]; rat, in vivo, iv) | plasma stability (radioactive degradation products) [4] | percentage of parent tracer radioactivity in blood plasma ([5]; 15 min) [%] | percentage of parent tracer radioactivity in blood plasma ([5]; 30 min) [%] | number of radiometabolites in blood plasma (more hydrophilic than parent) [5] | plasma stability (radioactive degradation products) [6] | non-specific binding in spleen tissue (CB2 in rat spleen slices; rat spleen slices (Figure 1 A2), with 1 μM GW4058233) | binding to CB2 in autoradiography (CB2 in rat spleen slices; rat spleen slices, 0.6 nM tracer, blocked by excess (1 μM) GW4058233)
CCCCOc1c(OC)ccc2cc(C(=O)NCC(F)c3ccccc3)c(=O)[nH]c12 (stereo not drawn) [KP23, 8-butoxy-N-(2-fluoro-2-phenylethyl)-7-methoxy-2-oxo-1,2-dihydroquinoline-3-carboxamide] | > 10000 | 0.8 ± 0.3 | > 10000 | 6.8 ± 5.8 | – | – | – | – | – | – | – | – | – | – | – | – | – | –
CCCCOc1c(O[11CH3])ccc2cc(C(=O)NCC(F)c3ccccc3)c(=O)[nH]c12 (stereo not drawn) [[^11C]KP23] | – | – | – | – | relatively high non-specific binding | specific binding | No radioactive degradation products | low uptake | 8 | around 4 min p.i. | high spleen uptake | No radioactive degradation products | 40 | 25 | two to three | No radioactive degradation products | relatively high non-specific binding | specific binding
